Measured values from paper PMC10817917, “Alkyl deoxyglycoside-polymyxin combinations against critical priority carbapenem-resistant gram-negative bacteria” (Scientific Reports, 2024).
Where two headings read alike, the source gives them in different places.

What was measured:
E. coli NCTC 13846 = test: Broth microdilution MIC/MBC, glycosides with or without polymyxins; assay type: cell-based, Escherichia coli; details: strain B
K. pneumoniae CQ1942 = test: Broth microdilution MIC, glycosides with or without polymyxins; assay type: cell-based, Klebsiella pneumoniae; details: for MIC: Klebsiella pneumoniae, CQ1942
A. baumannii CQ4322 = test: Broth microdilution MIC/MBC, glycosides with or without polymyxins; assay type: cell-based, Acinetobacter baumannii; details: for MIC: Acinetobacter baumannii, CQ4322
P. aeruginosa CQ4924 = test: Broth microdilution MIC, glycosides with or without polymyxins; assay type: cell-based, Pseudomonas aeruginosa; details: for MIC: Pseudomonas aeruginosa, CQ4924
[1] = alone, read-out: MICA (MIC of each compound individually)
[2] = combination with the lowest FICI
[3] = compound + colistin, lowest FICI

SMILES: CCCCCCCCCCCCO[C@@H]1O[C@H](C)C[C@H](O)[C@H]1O [Compound 2, dodecyl 4,6-dideoxy-α/β-D-xylo-hexopyranoside]
- MIC of colistin in combination with the compound (E. coli NCTC 13846; Cpd conc. 0.4 μg/mL): > 0.5 µg/mL
- MIC of colistin in combination with the compound (E. coli NCTC 13846; Cpd conc. 0.8 μg/mL): > 0.5 µg/mL
- MIC of colistin in combination with the compound (E. coli NCTC 13846; Cpd conc. 3.125 μg/mL): > 0.5 µg/mL
- MIC of colistin in combination with the compound (E. coli NCTC 13846; Cpd conc. 6.25 μg/mL): > 0.5 µg/mL
- MIC of colistin in combination with the compound (E. coli NCTC 13846; Cpd conc. 12.5 μg/mL): > 0.5 µg/mL
- MIC of colistin in combination with the compound (E. coli NCTC 13846; Cpd conc. […]): > 0.5 µg/mL
- MIC (E. coli NCTC 13846; Escherichia coli, NCTC13846, agent alone, no adjuvant (polymyxin conc. 0), read-out: MIC): > 100 µg/mL
- MIC of compound in combination with PMB (E. coli NCTC 13846; PMB 0.25 μg/mL): > 100 µg/mL
- MIC of compound in combination with PMB (E. coli NCTC 13846; PMB 0.5 μg/mL): > 100 µg/mL
- MIC of compound in combination with colistin (E. coli NCTC 13846; colistin 0.06 μg/mL): > 100 µg/mL
- MBC of compound in combination with colistin (E. coli NCTC 13846; colistin 0.125 μg/mL): > 100|> 100 μg/mL
- MIC of compound in combination with colistin (E. coli NCTC 13846; colistin 0.125 μg/mL): > 100|> 100 μg/mL
- MIC of compound in combination with colistin (E. coli NCTC 13846; colistin 0.25 μg/mL): > 100 µg/mL
- MIC of compound in combination with colistin (E. coli NCTC 13846; colistin 0.5 μg/mL): > 100 µg/mL
- MIC of colistin in combination with the compound (K. pneumoniae CQ1942; Cpd conc. 0.4 μg/mL, strain E): 0.5 µg/mL
- MIC of colistin in combination with the compound (K. pneumoniae CQ1942; Cpd conc. 0.8 μg/mL, strain E): 0.5 µg/mL
- MIC of colistin in combination with the compound (K. pneumoniae CQ1942; Cpd conc. 3.125 μg/mL, strain E): 0.5 µg/mL
- MIC of colistin in combination with the compound (K. pneumoniae CQ1942; Cpd conc. 6.25 μg/mL, strain E): 0.25 µg/mL
- MIC of colistin in combination with the compound (K. pneumoniae CQ1942; Cpd conc. 12.5 μg/mL, strain E): 0.25 µg/mL
- MIC of colistin in combination with the compound (K. pneumoniae CQ1942; Cpd conc. […], strain E): 0.5 µg/mL
- MIC (K. pneumoniae CQ1942; agent alone, no adjuvant (polymyxin conc. 0), strain E, read-out: MIC): > 100 µg/mL
- MIC (K. pneumoniae CQ1942; [1]): > 100 µg/mL
- MIC of compound in combination with PMB (K. pneumoniae CQ1942; PMB 0.25 μg/mL, strain E): > 100 µg/mL
- MIC of compound in combination with PMB (K. pneumoniae CQ1942; PMB 0.5 μg/mL, strain E): ≤ 0.1 µg/mL
- MIC of compound in combination with colistin (K. pneumoniae CQ1942; colistin 0.06 μg/mL, strain E): > 100 µg/mL
- MIC of compound in combination with colistin (K. pneumoniae CQ1942; colistin 0.125 μg/mL, strain E): > 100 µg/mL
- MIC of compound in combination with colistin (K. pneumoniae CQ1942; colistin 0.25 μg/mL, strain E): 6.3 µg/mL
- MIC of compound in combination with colistin (K. pneumoniae CQ1942; colistin 0.5 μg/mL, strain E): ≤ 0.1 µg/mL
- MICA(A + B) (MIC of compound in combination with colistin) (K. pneumoniae CQ1942; [2]): 6.25 µg/mL
- MICB(A + B) (MIC of colistin in combination with compound) (K. pneumoniae CQ1942; [2]): 0.25 µg/mL
- Interpretation (of FICI) (K. pneumoniae CQ1942; compound + colistin): Additive (from 0.5 to 1.0 were additive)
- FICI (K. pneumoniae CQ1942; [3]): 0.53
- MIC (A. baumannii CQ4322; agent alone, no adjuvant (polymyxin conc. 0), strain G, read-out: MIC): > 100 µg/mL
- MIC (A. baumannii CQ4322; [1]): > 100 µg/mL
- MIC of colistin in combination with the compound (A. baumannii CQ4322; Cpd conc. 0.4 μg/mL, strain G): > 0.5 µg/mL
- MIC of colistin in combination with the compound (A. baumannii CQ4322; Cpd conc. 0.8 μg/mL, strain G): 0.5 µg/mL
- MIC of colistin in combination with the compound (A. baumannii CQ4322; Cpd conc. 3.125 μg/mL, strain G): 0.25 µg/mL
- MIC of colistin in combination with the compound (A. baumannii CQ4322; Cpd conc. 6.25 μg/mL, strain G): 0.125 µg/mL
- MIC of colistin in combination with the compound (A. baumannii CQ4322; Cpd conc. 12.5 μg/mL, strain G): 0.125 µg/mL
- MIC of colistin in combination with the compound (A. baumannii CQ4322; Cpd conc. […], strain G): 0.5 µg/mL
- MIC of compound in combination with PMB (A. baumannii CQ4322; PMB 0.5 μg/mL, strain G): 0.8 µg/mL
- MIC of compound in combination with colistin (A. baumannii CQ4322; colistin 0.06 μg/mL, strain G): > 100 µg/mL
- MBC of compound in combination with colistin (A. baumannii CQ4322; colistin 0.125 μg/mL, strain G): 12.5 µg/mL
- MIC of compound in combination with colistin (A. baumannii CQ4322; colistin 0.125 μg/mL, strain G): 6.3 µg/mL
- MIC of compound in combination with colistin (A. baumannii CQ4322; colistin 0.25 μg/mL, strain G): 3.1 µg/mL
- MIC of compound in combination with colistin (A. baumannii CQ4322; colistin 0.5 μg/mL, strain G): 0.8 µg/mL
- MICA(A + B) (MIC of compound in combination with colistin) (A. baumannii CQ4322; [2]): 6.25 µg/mL
- MICB(A + B) (MIC of colistin in combination with compound) (A. baumannii CQ4322; [2]): 0.125 µg/mL
- FICI (A. baumannii CQ4322; [3]): 0.28
- MIC of colistin in combination with the compound (P. aeruginosa CQ4924; Cpd conc. 0.4 μg/mL, strain H): > 0.5 µg/mL
- MIC of colistin in combination with the compound (P. aeruginosa CQ4924; Cpd conc. 0.8 μg/mL, strain H): > 0.5 µg/mL
- MIC of colistin in combination with the compound (P. aeruginosa CQ4924; Cpd conc. 3.125 μg/mL, strain H): > 0.5 µg/mL
- MIC of colistin in combination with the compound (P. aeruginosa CQ4924; Cpd conc. 6.25 μg/mL, strain H): 0.5 µg/mL
- MIC of colistin in combination with the compound (P. aeruginosa CQ4924; Cpd conc. 12.5 μg/mL, strain H): 0.5 µg/mL
- MIC of colistin in combination with the compound (P. aeruginosa CQ4924; Cpd conc. […], strain H): > 0.5 µg/mL
- MIC of compound in combination with PMB (P. aeruginosa CQ4924; PMB 0.25 μg/mL, strain H): > 100 µg/mL
- MIC (P. aeruginosa CQ4924; agent alone, no adjuvant (polymyxin conc. 0), strain H, read-out: MIC): > 100 µg/mL
- MIC (P. aeruginosa CQ4924; [1]): > 100 µg/mL
- MIC of compound in combination with colistin (P. aeruginosa CQ4924; colistin 0.06 μg/mL, strain H): > 100 µg/mL
- MIC of compound in combination with colistin (P. aeruginosa CQ4924; colistin 0.125 μg/mL, strain H): > 100 µg/mL
- MIC of compound in combination with colistin (P. aeruginosa CQ4924; colistin 0.25 μg/mL, strain H): > 100 µg/mL
- MIC of compound in combination with colistin (P. aeruginosa CQ4924; colistin 0.5 μg/mL, strain H): 6.3 µg/mL
- MICA(A + B) (MIC of compound in combination with colistin) (P. aeruginosa CQ4924; [2]): 6.25 µg/mL
- MICB(A + B) (MIC of colistin in combination with compound) (P. aeruginosa CQ4924; [2]): 0.5 µg/mL
- Interpretation (of FICI) (P. aeruginosa CQ4924; compound + colistin): Additive (from 0.5 to 1.0 were additive)
- FICI (P. aeruginosa CQ4924; [3]): 0.53
